Assays:
PHH spheroids [1] = assay: Chronic toxicity assay in PHH spheroids, viability by cellular ATP content; format: cell-based, human; conditions: for Fold changes in EC50 vs. 48 h (8 d): 8 d vs 48 h exposure; for Fold changes in EC50 vs. 48 h (28 d): 28 d vs 48 h exposure; for EC50: Homo sapiens
Protocol: Cryopreserved PHH (obtained from […], France or Bioreclamation IVT, USA) or fresh hepatocytes (obtained from patients subject to liver resections at Huddinge University Hospital, Stockholm, Sweden) were used for formation of spheroid cultures. Hepatocytes obtained from patient livers were isolated as previously described. Use of the liver specimens for this purpose was approved by the Ethics Committee at Karolinska Institutet ([…] Stockholm) and studies were carried out in accordance with the approved guidelines. Written informed consent was obtained from all donors of liver material. Cells were seeded into ultra-low attachment 96-well plates (Corning) at 1,500 viable cells per well and subsequently centrifuged at 100 × g for 2 min. Cells were seeded in 100 μl Williams E medium supplemented with 2 mM L-glutamine, 100 units/ml penicillin, 100 μg/ml streptomycin, 10 μg/ml insulin, 5.5 μg/ml transferrin, 6.7 ng/ml sodium selenite, 100 nM dexamethasone, and 10% FBS. Spontaneous self-aggregation of the hepatocytes initiated spheroid formation. From day 4 or 5 after seeding, when the spheroids were sufficiently compact, 50% of the medium was exchanged daily for serum-free medium. Spheroids were maintained in serum-free medium until day 35, with a medium change every 48-72 h. Cell viability was assessed by determining the ATP content of single PHH spheroids with the CellTiter-Glo Luminescent Cell Viability Assay (Promega, Sweden). At the same time-points, cell culture medium was collected and albumin concentrations were determined by ELISA (Bethyl laboratories, USA). Absolute ATP and albumin values were normalized to spheroid volumes as determined from bright field imaging to compensate for compaction. […] Treatment was started on day 8 with repeated dosing of PHH spheroids every second day in serum-free medium as indicated. Cell viability was assessed by determining the ATP content as indicated above. EC50 values were determined using GraphPad Prism (GraphPad Software, USA).

[2] = human plasma Cmax; ref 21 (amiodarone), 22 (bosentan), 23 (diclofenac), 24 (fialuridine), 25 (tolcapone); read-out: In vivo Cmax; cited from earlier work
chimeric TK-NOG mice = tested on: chimeric TK-NOG mice; parameters: method as in PMID 24736310; conditions: mice carrying human hepatocytes; cited from earlier work
patients = tested on: patients; parameters: method as in PMID 7565947; conditions: clinical trials, cited from earlier work
PHH spheroids [3] = assay: Toxicity in non-infected and adenovirus (AdGL)-infected PHH spheroids; format: cell-based, human; conditions: for EC50: Homo sapiens
Protocol: Cell viability was assessed by determining the ATP content of single PHH spheroids with the CellTiter-Glo Luminescent Cell Viability Assay (Promega, Sweden). At the same time-points, cell culture medium was collected and albumin concentrations were determined by ELISA (Bethyl laboratories, USA). Absolute ATP and albumin values were normalized to spheroid volumes as determined from bright field imaging to compensate for compaction.
A recombinant adenovirus (AdGL) expressing green fluorescent protein (GFP; described in ref. [44]) was added during PHH spheroid seeding at a multiplicity of infection (MOI) of 0.1. PHH were seeded into GravityPLUS hanging-drop 96-well plates (InSphero, Zurich, Switzerland) at 1,500 viable cells per well. Spheroids were transferred to Gravity TRAP 96-well plates (InSphero) on day 7. Culture conditions were identical to the conditions for spheroids formed in ultra-low attachment plates.

PHH spheroids [4] = assay: Bile acid accumulation (tauro-nor-THCA-25-DBD) in PHH spheroids; format: cell-based, human; conditions: 5 μM every second day for 1 week; n = 3, p = 0.03
Protocol: (§1) PHH spheroids were dosed with 5 μM chlorpromazine every second day for 1 week. For the final exposure, 20 μM tauro-nor-THCA-25-DBD (Genomembrane Company Ltd., Yokohoma, Japan) was added. Bile acid accumulation was quantified and normalized to spheroid size using CellProfiler software.

[5] = tested on: bile salt export pump (BSEP) mRNA; assay: BSEP mRNA expression in PHH spheroids (RT-qPCR); format: cell-based, human; conditions: 5 μM
Protocol: as §1
Total RNA was isolated using Qiazol lysis reagent (Qiagen). RNA was reverse-transcribed into cDNA using SuperScript III reverse transcriptase and RT-qPCR analysis was performed using a TaqMan Universal mix on a 7500 Fast Real-Time PCR system.

PHH spheroids [6] = assay: Neutral lipid staining (steatosis) in PHH spheroids; format: cell-based, human; conditions: 10 μM co-exposure with CsA 30 μM, 48 h; n = 3, p = 0.009
Protocol: PHH spheroids were treated with 30 μM cyclosporine A (CsA) and/or 10 μM α-tocopherol (α-TOH) as indicated. After 48 h, spheroids were fixed and incubated with HCS LipidTOX Green neutral lipid stain (1:500). CellProfiler software was used to quantify neutral lipid staining.

[7] = tested on: Kupffer cells in co-culture spheroids; assay: LPS-induced IL-6 secretion in PHH/NPC co-culture spheroids (ELISA); format: cell-based, human; conditions: 10 μg/ml, 48 h; co-culture spheroids compared to PHH spheroids
Protocol: When used, co-cultures of cryopreserved PHH and non-parenchymal cells (NPCs; Bioreclamation IVT) originating from different donors were thawed and seeded at a ratio of 2:1 (PHH:NPC) and 2,000 viable cells per well into ultra-low attachment plates. Functionality of Kupffer cells was assessed by measuring lipopolysaccharide (LPS)-induced interleukin 6 (IL-6) secretion. LPS was added at a concentration of 10 μg/ml and supernatants were collected after 48 h. IL-6 levels were determined via ELISA (Thermo Scientific).

[8] = 672 h, PHH spheroids, viability by ATP content, dosing every second day, 28 days, read-out: EC50 (μM) 28d
[9] = PHH spheroids, viability by ATP content, 48 h exposure, read-out: EC50 (μM) 48h
[10] = PHH spheroids, viability by ATP content, dosing every second day, 7d (legend: 8 days), read-out: EC50 (μM) 7d

Compound	Fold changes in EC50 vs. 48 h (8 d) (PHH spheroids [1])	Fold changes in EC50 vs. 48 h (28 d) (PHH spheroids [1])	EC50 (PHH spheroids [1]; [8])	EC50 (PHH spheroids [1]; [9])	EC50 (PHH spheroids [1]; [10])	also measured
COc1ccccc1Oc1c(NS(=O)(=O)c2ccc(C(C)(C)C)cc2)nc(-c2ncccn2)nc1OCCO [Bosentan, bosentan]	3.6 fold	6.0 fold	41.8 µM	> 250 µM	69.5 µM	
O=C(O)Cc1ccccc1Nc1c(Cl)cccc1Cl [Diclofenac, diclofenac]			45.9 µM	191 µM	56.8 µM	
O=c1[nH]c(=O)n([C@@H]2O[C@H](CO)[C@@H](O)[C@@H]2F)cc1I [Fialuridine, fialuridine]	142.9 fold	1000 fold		> 100 µM	0.7 µM	EC50 (PHH spheroids [1]; 672 h, PHH spheroids, repeated dosing, 4 weeks, read-out: EC50 after 4 weeks): 0.1 µM; toxicity observed after 48 h (PHH spheroids [1]; PHH spheroids, 48 h exposure): no toxicity; Cmax [2]: 1000 nM; hepatotoxicity (chimeric TK-NOG mice): induced hepatotoxicity; patients who died (patients; of those with severe hepatotoxicity): five; patients who developed severe hepatotoxicity (patients; several weeks after beginning treatment): 7/15
Cc1ccc(C(=O)c2cc(O)c(O)c([N+](=O)[O-])c2)cc1 [Tolcapone, tolcapone]	2 fold	3.4 fold	5.6 µM	18.8 µM	9.4 µM	EC50 values related to reported in vivo Cmax (PHH spheroids [1]; already after acute dosing): lower than the reported in vivo Cmax values
N[C@@H]1[C@H]2CN(c3nc4c(cc3F)c(=O)c(C(=O)O)cn4-c3ccc(F)cc3F)C[C@@H]12 [Trovafloxacin, trovafloxacin]						EC50 (PHH spheroids [3]; non-infected PHH spheroids): 96.1 µM; EC50 (PHH spheroids [3]; virus-infected PHH spheroids (AdGL, MOI 0.1)): 32.9 µM; enhancement of toxicity by viral infection (PHH spheroids [3]; infected vs non-infected spheroids, p < 0.001): 2.9 fold
CN(C)CCCN1c2ccccc2Sc2ccc(Cl)cc21 [chlorpromazine]						accumulation of fluorescently-labelled bile acid derivative tauro-nor-THCA-25-DBD (PHH spheroids [4]): significant accumulation; BSEP mRNA expression [5]: down-regulation
C[C@H]1COc2c(N3CCN(C)CC3)c(F)cc3c(=O)c(C(=O)O)cn1c23 [levofloxacin]						toxicity observed (PHH spheroids [3]; infected spheroids): no toxicity; toxicity observed (PHH spheroids [3]; non-infected spheroids): no toxicity
Cc1c(C)c2c(c(C)c1O)CC[C@@](C)(CCC[C@H](C)CCC[C@H](C)CCCC(C)C)O2 [α-tocopherol]						protection against cyclosporine A-induced neutral lipid accumulation (PHH spheroids [6]): fully protected
lipopolysaccharide [LPS]						IL-6 secretion [7]: substantial increase

Reference: PMC4855186, “Characterization of primary human hepatocyte spheroids as a model system for drug-induced liver injury, liver function and disease” (Scientific Reports, 2016)
